Test [1] concerns MRC5. Kind of test: Cytotoxicity against human MRC5 cells assessed as growth inhibition measured after 72 hrs by MTS assay. It is filed as cell-based. To be noted: MRC5, 72 h. (Tetrazolium assays rely on reduction of a dye to a coloured formazan, in cell work by metabolically active cells.)
In test [2] the test system is Plasmodium falciparum. The experiment in a line: Antiplasmodial activity against chloroquine-resistant Plasmodium falciparum FcB1/Colombia infected in human red blood cells assessed as reduction in [3H]-hypoxanthine incorporation measured after 24 hrs liquid scintillation counting method. It is filed as functional, organism-based, RBC. To be noted: Erythrocyte.

For orientation: IC50 means the point on the concentration scale where inhibition reaches its midpoint. For the compound `CC[C@H]1N[C@H]2C[C@@]3(C(=O)N(OC)c4cc(OC)ccc43)[C@@H]3C[C@@H]1[C@@H]2CO3`, the IC50 in test [1] was > 50 µM; in test [2], 59.5 µM.
Consider `CC[C@H]1N[C@H]2C[C@@]3(C(=O)N(OC)c4ccccc43)[C@@H]3C[C@@H]1[C@@H]2CO3`, for which the values for the IC50 in test [1] and in test [2] were > 50 µM and 42.5 µM, respectively.
For the compound `C/C=C1/CN(C)[C@@H]2Cc3c([nH]c4ccccc34)C(=O)C[C@H]1[C@H]2C(=O)OC`, the IC50 is > 50 µM in test [1] and 22.5 µM in test [2].
For the compound `C/C=C1/CN(C)[C@@H]2Cc3c([nH]c4ccccc34)[C@@H](S)C[C@H]1[C@H]2C(=O)OC`, the IC50 is > 50 µM in test [1] and 1.05 µM in test [2].

Values taken from ChEMBL document CHEMBL4837190, “Targeted Isolation of Hemitheion from Mostuea brunonis, a Proposed Biosynthetic Intermediate of Theionbrunonines” (J Nat Prod, 2021).
